According to ChEMBL document CHEMBL3351732, “Potent bisimidazole-based HCV NS5A inhibitors bearing annulated tricyclic motifs” (Bioorg Med Chem Lett, 2014):

How the values were obtained:
[1] = tested on: Hepatitis C virus; assay: Antiviral activity against HCV genotype 1a infected in human HuH7 cells by luciferase reporter gene assay; type: functional, cell-based, Hepacivirus hominis; conditions: subtype 1a, Huh-7
[2] = tested on: Hepatitis C virus; assay: Antiviral activity against HCV genotype 1b infected in human HuH7 cells by luciferase reporter gene assay; type: functional, cell-based, Hepacivirus hominis; conditions: Huh-7
[3] = tested on: Hepatitis C virus; assay: Antiviral activity against HCV genotype 3a infected in human HuH7 cells by luciferase reporter gene assay; type: functional, cell-based, Hepacivirus hominis; conditions: Huh-7
[4] = tested on: Hepatitis C virus; assay: Antiviral activity against HCV genotype 4a infected in human HuH7 cells by luciferase reporter gene assay; type: functional, cell-based, Hepacivirus hominis; conditions: Huh-7
[5] = tested on: Hepatitis C virus; assay: Antiviral activity against HCV genotype 5a infected in human HuH7 cells by luciferase reporter gene assay; type: functional, cell-based, Hepacivirus hominis; conditions: Huh-7
[6] = tested on: Hepatitis C virus; assay: Antiviral activity against HCV genotype 6a infected in human HuH7 cells by luciferase reporter gene assay; type: functional, cell-based, Hepacivirus hominis; conditions: Huh-7
[7] = Tmax in Sprague-Dawley rat at 5 mg/kg, po; type: ADME, organism-based; set-up: dose 5 mg/kg, route oral; conditions: in vivo
[8] = tested on: Rattus norvegicus; assay: (§1) Clearance in Sprague-Dawley rat at 1 mg/kg, iv; type: ADME, organism-based; set-up: dose 1 mg/kg, route intravenous; conditions: in vivo
[9] = Drug level in Sprague-Dawley rat liver at 5 mg/kg, po measured 4 hrs post dose; type: ADME, organism-based; set-up: dose 5 mg/kg, route oral; conditions: read-out: Drug uptake
[10] = Half life in Sprague-Dawley rat at 1 mg/kg, iv; type: ADME, organism-based; set-up: dose 1 mg/kg, route intravenous; conditions: in vivo
[11] = Volume of distribution at steady state in Sprague-Dawley rat at 1 mg/kg, iv; type: ADME, organism-based; set-up: dose 1 mg/kg, route intravenous; conditions: in vivo, read-out: Vdss
[12] = AUC(last) in Sprague-Dawley rat at 5 mg/kg, po; type: ADME, organism-based; set-up: dose 5 mg/kg, route oral, time 0 - last; conditions: plasma
[13] = tested on: Rattus norvegicus; assay: (§2) AUC(last) in Sprague-Dawley rat at 1 mg/kg, iv; type: ADME, organism-based, Plasma; set-up: time 0 - last, dose 1 mg/kg, route intravenous; conditions: in vivo
[14] = Cmax in Sprague-Dawley rat at 5 mg/kg, po; type: ADME, organism-based; set-up: dose 5 mg/kg, route oral; conditions: in vivo
[15] = Oral bioavailability in Sprague-Dawley rat at 5 mg/kg; type: ADME, organism-based; conditions: in vivo
[16] = Plasma concentration in Sprague-Dawley rat at 5 mg/kg, po measured 4 hrs post dose; type: ADME, organism-based; set-up: dose 5 mg/kg, route oral
[17] = as §1; type: ADME, organism-based; set-up: dose 1 mg/kg, route intravenous; conditions: Sprague-Dawley, in vivo
[18] = as §2; type: ADME, organism-based, Plasma; set-up: time 0 - last, dose 1 mg/kg, route intravenous; conditions: Sprague-Dawley, plasma

| Compound | EC50 [1] [nM] | EC50 [2] [nM] | further results |
| --- | --- | --- | --- |
| COC(=O)N[C@H](C(=O)N1CCC[C@H]1c1ncc(-c2ccc3nc4cc(-c5cnc([C@@H]6CCCN6C(=O)[C@@H](NC(=O)OC)C(C)C)[nH]5)ccc4nc3c2)[nH]1)C(C)C | 0.088 | 0.037 |  |
| COC(=O)N[C@H](C(=O)N1CCC[C@H]1c1ncc(-c2ccc3oc4cc(-c5cnc([C@@H]6CCCN6C(=O)[C@@H](NC(=O)OC)C(C)C)[nH]5)c(F)cc4c(=O)c3c2)[nH]1)C(C)C | 0.6 | 0.03 |  |
| COC(=O)N[C@H](C(=O)N1CCC[C@H]1c1ncc(-c2ccc(-c3ccc(-c4cnc([C@@H]5CCCN5C(=O)[C@@H](NC(=O)OC)C(C)C)[nH]4)cc3)cc2)[nH]1)C(C)C [DACLATASVIR] | 0.14 | 0.073 | EC50 [3]: 0.67 nM; EC50 [4]: 0.041 nM; EC50 [5]: 0.051 nM; EC50 [6]: 0.45 nM |
| COC(=O)N[C@H](C(=O)N1CCC[C@H]1c1ncc(-c2ccc3c(c2)C(C)(C)c2cc(-c4cnc([C@@H]5CCCN5C(=O)[C@@H](NC(=O)OC)C(C)C)[nH]4)ccc2-3)[nH]1)C(C)C | 1.14 | 0.037 |  |
| COC(=O)N[C@H](C(=O)N1CCC[C@H]1c1ncc(-c2ccc3c4ccc(-c5cnc([C@@H]6CCCN6C(=O)[C@@H](NC(=O)OC)C(C)C)[nH]5)cc4n(C)c3c2)[nH]1)C(C)C | 7.7 | 0.17 |  |
| COC(=O)N[C@H](C(=O)N1CCC[C@H]1c1ncc(-c2ccc3c(c2)Oc2ccc(-c4cnc([C@@H]5CCCN5C(=O)[C@@H](NC(=O)OC)C(C)C)[nH]4)cc2C32CC2)[nH]1)C(C)C | 0.065 | 0.02 |  |
| COC(=O)N[C@H](C(=O)N1CCC[C@H]1c1ncc(-c2ccc3c(c2)CCc2ccc(-c4cnc([C@@H]5CCCN5C(=O)[C@@H](NC(=O)OC)C(C)C)[nH]4)cc2O3)[nH]1)C(C)C | 7.4 | 0.055 |  |
| COC(=O)N[C@H](C(=O)N1CCC[C@H]1c1ncc(-c2ccc3oc4cc(-c5cnc([C@@H]6CCCN6C(=O)[C@@H](NC(=O)OC)C(C)C)[nH]5)c(Cl)cc4c(=O)c3c2)[nH]1)C(C)C | 2.5 | 0.029 |  |
| COC(=O)N[C@H](C(=O)N1CCC[C@H]1c1ncc(-c2ccc3c(c2)[nH]c2cc(-c4cnc([C@@H]5CCCN5C(=O)[C@@H](NC(=O)OC)C(C)C)[nH]4)ccc23)[nH]1)C(C)C | 16.5 | 0.18 |  |
| COC(=O)N[C@H](C(=O)N1CCC[C@H]1c1ncc(-c2ccc3c(c2)Cc2cc(-c4cnc([C@@H]5CCCN5C(=O)[C@@H](NC(=O)OC)C(C)C)[nH]4)ccc2O3)[nH]1)C(C)C | > 100 | > 3.7 |  |
| COC(=O)N[C@H](C(=O)N1CCC[C@H]1c1ncc(-c2ccc3c(c2)oc2ccc(-c4cnc([C@@H]5CCCN5C(=O)[C@@H](NC(=O)OC)C(C)C)[nH]4)cc23)[nH]1)C(C)C | 1.8 | 0.033 |  |
| COC(=O)N[C@H](C(=O)N1CCC[C@H]1c1ncc(-c2ccc3c(=O)c4cc(-c5cnc([C@@H]6CCCN6C(=O)[C@@H](NC(=O)OC)C(C)C)[nH]5)ccc4oc3c2)[nH]1)C(C)C | 0.173 | 0.028 | Tmax [7]: 0.5 h; EC50 [3]: 1.4 nM; CL [8]: 55 mL/min/kg; concentration at 4 h [9]: 25 ng/mL; half-life [10]: 0.92 h; Vd [11]: 3.57 L/kg; AUC(0-t) [12]: 197 ng·h/mL; AUClast [13]: 626 ng·h/mL; Cmax [14]: 96.5 ng/mL; bioavailability [15]: 6.7%; concentration at 4 h [16]: 14 ng/mL |
| COC(=O)N[C@H](C(=O)N1CCC[C@H]1c1ncc(-c2ccc3c(c2)S(=O)(=O)c2cc(-c4cnc([C@@H]5CCCN5C(=O)[C@@H](NC(=O)OC)C(C)C)[nH]4)ccc2-3)[nH]1)C(C)C | 2 | 0.13 |  |
| COC(=O)N[C@H](C(=O)N1CCC[C@H]1c1ncc(-c2ccc3c(c2)-c2ccc(-c4cnc([C@@H]5CCCN5C(=O)[C@@H](NC(=O)OC)C(C)C)[nH]4)cc2-3)[nH]1)C(C)C | 3 | 0.55 |  |
| COC(=O)N[C@H](C(=O)N1CCC[C@H]1c1ncc(-c2ccc3oc4cc(-c5cnc([C@@H]6CCCN6C(=O)[C@@H](NC(=O)OC)C(C)C)[nH]5)c(C)cc4c(=O)c3c2)[nH]1)C(C)C | 3.4 | 0.055 |  |
| COC(=O)N[C@H](C(=O)N1CCC[C@H]1c1ncc(-c2ccc3c(c2)Oc2ccc(-c4cnc([C@@H]5CCCN5C(=O)[C@@H](NC(=O)OC)C(C)C)[nH]4)cc2O3)[nH]1)C(C)C | 0.044 | 0.023 | Tmax [7]: 1.33 h; EC50 [3]: 0.06 nM; clearance [17]: 11.2 mL/min/kg; concentration at 4 h [9]: 973 ng/mL; half-life [10]: 2.53 h; Vd [11]: 1.18 L/kg; AUC(0-t) [12]: 1470 ng·h/mL; AUC(0-t) [18]: 2570 ng·h/mL; Cmax [14]: 339 ng/mL; bioavailability [15]: 20.1%; concentration at 4 h [16]: 199 ng/mL |
| COC(=O)N[C@H](C(=O)N1CCC[C@H]1c1ncc(-c2ccc3c(c2)oc2cc(-c4cnc([C@@H]5CCCN5C(=O)[C@@H](NC(=O)OC)C(C)C)[nH]4)ccc23)[nH]1)C(C)C | 0.4 | 0.041 | EC50 [3]: 1.3 nM |
| COC(=O)N[C@H](C(=O)N1CCC[C@H]1c1ncc(-c2ccc3c(c2)Cc2ccc(-c4cnc([C@@H]5CCCN5C(=O)[C@@H](NC(=O)OC)C(C)C)[nH]4)cc2O3)[nH]1)C(C)C | 0.098 | 0.013 | Tmax [7]: 3.33 h; clearance [17]: 15.8 mL/min/kg; concentration at 4 h [9]: 462 ng/mL; half-life [10]: 1.33 h; Vd [11]: 1.32 L/kg; AUC(0-t) [12]: 2090 ng·h/mL; AUC(0-t) [18]: 1060 ng·h/mL; Cmax [14]: 380 ng/mL; bioavailability [15]: 41.1%; concentration at 4 h [16]: 371 ng/mL |
| COC(=O)N[C@H](C(=O)N1CCC[C@H]1c1ncc(-c2ccc3c(c2)Oc2ccc(-c4cnc([C@@H]5CCCN5C(=O)[C@@H](NC(=O)OC)C(C)C)[nH]4)cc2C(=O)N3)[nH]1)C(C)C | > 100 | > 3.7 |  |
| COC(=O)N[C@H](C(=O)N1CCC[C@H]1c1ncc(-c2ccc3c(c2)c(=O)c2ccc(-c4cnc([C@@H]5CCCN5C(=O)[C@@H](NC(=O)OC)C(C)C)[nH]4)cc2n3C)[nH]1)C(C)C | 11.1 | 0.028 |  |
| COC(=O)N[C@H](C(=O)N1CCC[C@H]1c1ncc(-c2ccc3c(c2)C(=O)c2cc(-c4cnc([C@@H]5CCCN5C(=O)[C@@H](NC(=O)OC)C(C)C)[nH]4)ccc2-3)[nH]1)C(C)C | 0.45 | 0.045 |  |
| COC(=O)N[C@H](C(=O)N1CCC[C@H]1c1ncc(-c2ccc3c(c2)CCc2cc(-c4cnc([C@@H]5CCCN5C(=O)[C@@H](NC(=O)OC)C(C)C)[nH]4)ccc2O3)[nH]1)C(C)C | 4.8 | 0.069 |  |
| COC(=O)N[C@H](C(=O)N1CCC[C@H]1c1ncc(-c2ccc3c(c2)Cc2cc(-c4cnc([C@@H]5CCCN5C(=O)[C@@H](NC(=O)OC)C(C)C)[nH]4)ccc2-3)[nH]1)C(C)C | 0.25 | 0.042 | EC50 [3]: 3.8 nM |
| COC(=O)N[C@H](C(=O)N1CCC[C@H]1c1ncc(-c2ccc3oc4ccc(-c5cnc([C@@H]6CCCN6C(=O)[C@@H](NC(=O)OC)C(C)C)[nH]5)cc4c3c2)[nH]1)C(C)C | 9 | 0.17 |  |
